“And” between values parts separate entries of the source, which are not always exact repeats. Equal values may be shown once.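 These data come from cells grown in 96-well plates and exposed to compound for 48 hours at five concentrations. GI50 is the concentration that inhibits growth by half. TGI is the concentration that stops growth completely.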 Bounds are passed on as bounds.

Assay in all cases: NCI-60 cell line screen, 48 h
Test [1] deals with SF-268 CNS.
For test [2], the system named is OVCAR-4 ovarian.
Test [3] relates to HCC-2998 colon.
The subject of test [4] is SK-MEL-28 melanoma.
In test [5] the test system is SF-295 CNS.
The test system of test [6] is M14 melanoma.
In test [7] the test system is IGROV1 ovarian.
For test [8], the system named is HCT-116 colon.
The test system of test [9] is UACC-62 melanoma.
Test [10] relates to A498 renal.

Consider `CCCNCCCC(NC(C)=O)C(=O)NCc1ccccc1` (stereo not drawn), for which the TGI in test [1], in [2], in test [3], in test [4], in test [5] and in test [6] was over 100 µM throughout. The TGI in [7], in test [8], in test [9] and in [10] was over 100 µM in each case.

On to `CCOC(=O)C1(Br)C(c2ccccc2)NC(=O)NC1(C)Br` (stereo not drawn), for which the TGI in [1], in test [2], in test [3], in test [4], in test [5] and in test [6] was over 100 µM throughout. Moreover, the TGI in [7], in test [8], in test [9] and in test [10] was over 100 µM in each case. Further, the GI50 in test [2] was 30.3 µM.

As to `O=C1C=C(NCCNC(=S)Nc2ccccc2)c2nccc3c2c1nc1ccccc13`, the GI50 in test [1] was 53.7 µM; in test [2], 92.7 µM; in test [3], 17.6 µM; in [4], over 100 µM; in test [5] it was 39.7 µM; in [6] it was 39.3 µM. The GI50 in [7] is 56.8 µM; in test [8] it was 14 µM; in test [9], 20.6 µM; in test [10] it was over 100 µM. Further, the TGI in [1], in test [2], in test [3], in test [4], in test [5] and in [6] was over 100 µM throughout. For the same compound, the TGI in test [7] is over 100 µM; in [8], over 100 µM; in test [9], 73 µM; in test [10], over 100 µM.

On to `COc1ccccc1/C=C1\CCC(CCN(C)C)(C2=CCCC2)C1=O` (stereo not drawn), for which the TGI in test [1] worked out at 40.1 µM; in test [2], 35.2 µM; in [3], 31.9 µM; in [4], 32.7 µM; in test [5], 31.7 µM; in test [6], 31.3 µM. For the same compound, the TGI in test [7] amounted to 28.6 µM; in test [8] it was 25.3 µM; in [9], 23.5 µM; in test [10], 32.1 µM.

With `O=C(/C(=C\C(=O)c1cccs1)c1ccsc1)c1ccc(Br)cc1`, the TGI in test [1], in [3], in [4], in test [5], in [6] and in test [7] was over 100 µM each time. Further, the TGI in [8], in test [9] and in [10] was over 100 µM in each case.

As to `C[C@H](NC(=O)[C@@H]1CSSC[C@@H](NC(=O)c2nc3ccccc3cc2O)C(=O)NCC(=O)N1C)c1ccccc1`, the GI50 in test [1] was 0.43 µM; in test [2], 7.95 µM; in [3], 7.48 µM; in test [4], 0.906 µM; in test [5] it was 7.44 µM; in test [6], 0.318 µM. The GI50 was 2.59 µM in test [7], 1.63 µM in test [8], 5.6 µM in test [9] and 15 µM in test [10]. For the same compound, the TGI in test [1] was 11 µM; in test [2], 18.3 µM; in [3], 17.1 µM; in test [4], 9.83 µM; in test [5], 16.3 µM; in test [6], 9.76 µM. The TGI was 12.4 µM in [7], 5.15 µM in [8], 13.2 µM in test [9] and 33.5 µM in test [10].

With `O=Cc1ccccc1OCCOc1cc(OCCOc2ccccc2C=O)c(OCCOc2ccccc2C=O)cc1OCCOc1ccccc1C=O`, the TGI in [1], in test [2], in test [3], in test [4], in test [6] and in test [7] was over 100 µM in each case. Further, the TGI in [8] is over 71.2 µM; in test [9], over 100 µM; in [10], over 100 µM.

Take `CC[C@@]1(O)C[C@H](OC2CC(N(C)C)C(OC3CC(O)C(OC4CCC(=O)C(C)O4)C(C)O3)C(C)O2)c2c(cc3c(c2O)C(=O)c2c(O)cccc2C3=O)[C@H]1C(=O)OC` (stereo partly drawn): the TGI in test [1] was 0.371 µM and 2.79 µM; in test [2], 0.221 µM and 0.196 µM; in test [3], 0.0746 µM and 0.351 µM; in test [4] it was 0.142 µM and 0.453 µM; in test [5], 0.224 µM and 0.92 µM; in test [6], 0.149 µM. In addition, the TGI is 0.0491 µM and 0.115 µM in test [9]; 0.0539 µM and 0.0599 µM in [10].

For `COC1=CC(=O)C2C(C1=O)[C@@H]1c3ccccc3C[C@H]21` (stereo partly drawn), the TGI in test [1], in test [2], in test [3], in test [4], in [5] and in test [6] was over 100 µM each time. The TGI in test [7], in test [9] and in test [10] was over 100 µM each time.

In the case of `O=Nc1c(-c2c(O)[nH]c3ccc([N+](=O)[O-])cc23)[nH]c2ccc(O)cc12`, the GI50 was 0.474 µM in test [1]; 0.43 µM in [2]; 0.836 µM in test [3]; 0.435 µM in test [4]; 0.62 µM in test [5]; 0.496 µM in [6]. Further, the GI50 in [7] is 0.312 µM; in test [9], 0.211 µM; in test [10], 0.218 µM. In addition, the TGI in test [1] is over 100 µM; in test [2] it was over 100 µM; in [3], over 100 µM; in [4], over 100 µM; in [5] it was over 100 µM; in test [6] it was over 87 µM. Besides, the TGI in [7] was over 100 µM; in test [9], 0.439 µM; in [10], 1.24 µM.

Regarding `O=C(Nc1cccc([N+](=O)[O-])c1)C(=O)C(C(=O)c1ccccc1-c1ccccc1)C1OC(=O)c2ccccc21` (stereo not drawn), the TGI was determined as 75.8 µM in test [1]; 30.5 µM in test [3]; 67.6 µM in test [4]; 66.5 µM in [5]; 41.1 µM in test [6]; 98.8 µM in test [7]. Further, the TGI in test [8] worked out at 26.6 µM; in test [9], 45.7 µM; in test [10], 60.2 µM.

Source of the values: PubChem BioAssay (NCI).
